Source: US11913884B2, “Visible light-activated dyes and methods of use thereof” (William Marsh Rice University, priority 2019, dated 2024)
“And” between values parts separate entries of the source, which are not always exact repeats. Equal values may be shown once. Where a name gives a salt, the structure may show the parent alone. Read-outs that look alike come from different tables or passages of the source.

Assays:
[1] = Fluorescence quantum yield determination; assay type: physicochemical; details: DMSO; reference rhodamine B in ethanol or quinine sulfate in 0.5 M H2SO4
Procedure: (§1) The ^1H NMR spectroscopic measurements were carried out using a Bruker-600 NMR at 600 MHz with tetramethysilane (TMS) as internal reference. Electrospray ionization (ESI) mass spectra were performed on a Bruker MicroToF ESI LC-MS System in positive-ion mode. The steady-state absorption spectra were obtained with a ThermoFisher Evolution 220 UV-Vis spectrophotometer in 1 cm path length quartz cells. Fluorescence spectra were recorded using spectrophotometer (SPEX FluoroLog-3). Quantum yield in DMSO was measured relative to the fluorescence of Rhodamine B (Φ=0.65) in ethanol or quinine sulfate (Φ=0.55) in 0.5 M·L^−1 H2SO4. FT-IR spectrum was taken on a PerkinElmer Spectrum 100 FT-IR Spectrometers. Confocal fluorescent images of living cells were performed using Nikon A1R-si Laser Scanning Confocal Microscope (Japan), equipped with lasers of 405/488/561/638 nm. STORM images were performed on a NSTORM (Nikon, Japan), featuring a CFI Apo TIRF 100× oil objective (NA 1.49) on an inverted Nikon Ti Eclipse microscope with a quad cube filter (Chroma, zt405/488/561/640 m-TRF), piezo stage, and Perfect Focus System (Nikon) for Z-stability. Light source are hand-held UV lamp, BlueView Transilluminator (470 nm centred, Vernier), Prior Lumen200 with 615/30 filter and 850 LED (Mouser Electronics).
Quantum yields were measured with Rhodamine B as reference (Φ=0.65) or quinine sulfate (Φ=0.55) in 0.5 M H2SO4. Fluorescence measurements were performed in 1 cm quartz cells with 5 μM samples in DMSO on spectrophotometer (SPEX FluoroLog-3) (slits 5×5). The fluorescence quantum yield, Φ (sample), were calculated according to equation as following:
[formula] Φ: quantum yield; I: integrated emission intensity; OD: optical density at the excitation wavelength; d: refractive index of solvents, dDMSO=1.478; dethanol=1.36; dwater=1.33.

[2] = UV-vis absorption and fluorescence spectra of thio-caged and uncaged fluorophores; assay type: physicochemical; details: for λem / λabs: DMSO (50 μM); for λabs: absorption maxima
Procedure: Encouraged by the excellent photoactivation properties of SNile Red, Lawesson's reagent was employed to introduce thiocarbonyl moieties into several different fluorophores, such as phthalimide (PI), coumarin (Cou) and acridone (ACD), obtaining yields ranging from 20-80% (FIG. 1). Next, characterization of the spectroscopic and photochemical properties of these thiocaged fluorophores and their oxidized products using UV-vis and fluorescence spectroscopies was performed (Table 1). […] Double thiocarbonyl substitution on 4-dimethylaminophthalimide (4-DMAP, FIG. 1) produced an even larger bathochromic shift of 166 nm. […] It was hypothesized that the red-shift and enhanced absorption seen with thiocarbonyl compounds were due to the reduced energy gap between the HOMO-LUMO in these fluorophores. This is consistent with the computational results discussed below. […] To assess the efficiency of photoactivation for the various thio-caged fluorophores, UV-vis and fluorescence spectra were recorded after different irradiation times (FIGS. 4-8).
as §1

[3] = Photoactivation (turn-on) of thio-caged fluorophores in solution by light irradiation; assay type: physicochemical; details: DMSO; footnote d: 615 nm, 0.4 μW cm^−2
Description: To determine whether a minimal one atom sulfur-for-oxygen substitution within fluorophores can lead to fluorescence quenching, thio-caged Nile Red (SNile Red, FIG. 1) was synthesized, in which a carbonyl group was replaced with a thiocarbonyl moiety. Treatment of Nile Red with Lawesson's reagent in refluxing benzene produced the desired SNile Red in a yield of 40%. […] Irradiation of SNile Red with red light (615 nm, 0.4 μW cm-2) led to the regeneration of fluorescent Nile Red in a high yield (FIG. 2A). The absorption maxima of SNile Red at 298, 368 and 652 nm were blue-shifted after desulfuration to 315 and 556 nm, in a good agreement with the absorption spectrum of authentic synthesized Nile Red (FIG. 2B). The A556/A652 value, representing the ratio of the absorbance maxima of Nile Red and SNile Red, increased from 0.25 to 30 after desulfuration reaction (FIG. 2B). Upon irradiation with red light, the fluorescence intensity of the desulfurated material at 626 nm increased 280-fold, accompanied by a change in fluorescence from dark to red (FIG. 2C). To evaluate the proper light source for SNile Red photoactivation, SNile Red was irradiated with either 470 nm, 615 nm, or 850 nm light for different times and fluorescence intensities at 626 nm were recorded. […] To further characterize the photoactivated product of SNile Red, ^1H NMR and ESI-MS spectral changes were measured in the process of photoactivation (FIG. 2A). […] Signals corresponding to phenyl moiety protons at 8.64, 8.62, 7.85, 7.73, 7.36, 7.04, and 6.79 ppm gradually disappeared, and were replaced by new signals appearing at 8.57, 8.13, 7.81, 7.72, 7.63, 6.85, 6.69 and 6.30 ppm, respectively. […] The photoactivated product was also characterized by ESI-mass spectrometric analysis FIG. 3). The observed m/z 319.2 corresponding to Nile Red confirms the photoactivation product of SNile Red is its oxo form. Both dialkylthioketones and diarylthioketones are known to undergo photo-oxidation reaction under oxygen and light to give the corresponding ketones (Coyle, 1985, Corsaro and Pistara, 1998). To investigate the effects of dissolved oxygen and light on the photoactivation of thio-caged fluorophores, the time profile of the fluorescence of SNile Red was measured in the presence or absence of light, or oxygen. […] To study the effect of oxygen during the photoactivation, the inventors prepared an oxygen-free SNile Red solution by bubbling nitrogen gas and irradiated at 615 nm. […] Inspired by the photoactivation mechanism of thioketones, it was hypothesized that singlet oxygen generated by self-sensitization can be the active species to oxidize thiocarbonyl groups within fluorophores (Coyle, 1985 and Corsaro and Pistara, 1998). […] The singlet oxygen quantum yield (DA) was further determined to be 0.36 with considering the absorption correction factor over the 600-630 nm region (Bonacin et al., 2009 and Adarsh et al., 2010) by referring to methylene blue (MB) (ΦΔ,MB=0.57 in dichloromethane; Li et al., 2013).
Encouraged by the excellent photoactivation properties of SNile Red, Lawesson's reagent was employed to introduce thiocarbonyl moieties into several different fluorophores, such as phthalimide (PI), coumarin (Cou) and acridone (ACD), obtaining yields ranging from 20-80% (FIG. 1). Next, characterization of the spectroscopic and photochemical properties of these thiocaged fluorophores and their oxidized products using UV-vis and fluorescence spectroscopies was performed (Table 1). […] Double thiocarbonyl substitution on 4-dimethylaminophthalimide (4-DMAP, FIG. 1) produced an even larger bathochromic shift of 166 nm. […] It was hypothesized that the red-shift and enhanced absorption seen with thiocarbonyl compounds were due to the reduced energy gap between the HOMO-LUMO in these fluorophores. This is consistent with the computational results discussed below. […]

[4] = system: H2B-Halo expressed CHO-K1 cells; assay: Turn-on of 5NP-Halo in cells; assay type: cell-based; details: 10 μM for 1 h
Description: FIGS. 19A & 19B show turn-on of 5NP-Halo in H2B-Halo expressed CHO-K1 cells.

[5] = cited from earlier work
[6] = in dichloromethane; cited from earlier work

| Structure (SMILES) | ø (fluorescence quantum yield) [1] | λem [2] | λabs [2] | further results |
| --- | --- | --- | --- | --- |
| O=c1c2ccccc2[nH]c2ccccc12 [ACD, acridone] | 0.64 | 406 nm and 428 nm and 455 nm | 361 nm and 379 nm and 398 nm |  |
| O=c1ccc2ccccc2o1 [Cou, coumarin] | 0.71 | 445 nm |  |  |
| CN(C)c1ccc2c(c1)C(=O)NC2=O [DMAP, 4-dimethylaminophthalimide] | 0.09 | 505 nm | 267 nm and 325 nm and 397 nm | bathochromic shift of absorption maximum ([2]; double thiocarbonyl substitution versus carbonyl compound): 166 nm |
| S=C1NC(=S)c2ccccc21 [Dye 2SPI] | <0.001 | 294 nm |  | Turn-on (x-fold) [3]: 30^d x-fold |
| O=C(CN1C(=S)c2cccc3c(N4CCCC4)ccc(c23)C1=S)NCCOCCOCCCCCCCl [Dye 5NP-Halo] |  |  |  | fluorescence upon photoactivation of treated cells [4]: enhanced fluorescence |
| CCN(CC)c1ccc2nc3c4ccccc4c(=O)cc-3oc2c1 [Nile Red] | 0.46 | 626 nm |  |  |
| O=C1NC(=O)c2ccccc21 [OPI, phthalimide] | 0.001 | 347 nm |  |  |
| CCN(CC)c1ccc2c(-c3ccccc3C(=O)O)c3ccc(=[N+](CC)CC)cc-3oc2c1.[Cl-] [Rhodamine B] |  |  |  | fluorescence quantum yield Φ of reference ([5]; in ethanol): 0.65 |
| S=c1c2ccccc2[nH]c2ccccc12 [SACD] | <0.001 | 409 nm and 427 nm and 463 nm | 430 nm and 456 nm | Turn-on (x-fold) [3]: 180^d x-fold |
| CN(C)c1ccc2c(c1)C(=S)NC2=S [SDMAP] | <0.001 | 447 nm | 326 nm and 390 nm and 563 nm | Turn-on (x-fold) [3]: 1600^d x-fold |
| CN(C)c1ccc2nc3ccc(=[N+](C)C)cc-3sc2c1 [methylene blue] |  |  |  | singlet oxygen quantum yield (ΦΔ,MB) of reference [6]: 0.57 |
| C=C[C@H]1C[N@@]2CC[C@H]1C[C@H]2[C@H](O)c1ccnc2ccc(OC)cc12 [quinine sulfate] |  |  |  | fluorescence quantum yield Φ of reference ([5]; in 0.5 M H2SO4): 0.55 |
